Like-named read-outs stand apart in the source and are kept apart here.

Data set [1] has as its target T1, SHP2 wild-type phosphatase (recombinantly expressed full-length SHP2, aa 1-593) (Homo sapiens, UniProt Q06124).
T1 sequence (Q06124 1-593): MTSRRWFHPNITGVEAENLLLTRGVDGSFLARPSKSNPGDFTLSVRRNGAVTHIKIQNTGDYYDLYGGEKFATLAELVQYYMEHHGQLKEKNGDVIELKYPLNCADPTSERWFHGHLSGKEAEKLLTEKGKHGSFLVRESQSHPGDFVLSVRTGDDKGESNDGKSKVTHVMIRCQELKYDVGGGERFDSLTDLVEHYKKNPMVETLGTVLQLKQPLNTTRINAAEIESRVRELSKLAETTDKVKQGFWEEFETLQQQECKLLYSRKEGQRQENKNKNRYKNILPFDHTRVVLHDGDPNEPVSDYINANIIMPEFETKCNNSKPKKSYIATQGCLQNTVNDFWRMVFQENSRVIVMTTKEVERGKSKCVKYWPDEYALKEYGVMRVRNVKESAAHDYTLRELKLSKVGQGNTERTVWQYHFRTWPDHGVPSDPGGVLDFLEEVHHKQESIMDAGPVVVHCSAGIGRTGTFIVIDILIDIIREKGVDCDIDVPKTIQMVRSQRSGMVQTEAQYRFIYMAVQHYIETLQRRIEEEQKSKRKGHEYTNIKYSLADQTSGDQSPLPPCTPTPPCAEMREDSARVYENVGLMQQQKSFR
The data set can be described thus: In vitro activity on SHP2 wild-type phosphatase (DiFMUP fluorescence).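 Note: enzyme preincubated at room temperature, then DiFMUP reaction run at room temperature and halted with SDS, potency derived from a logistic curve fit.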 The following applies: wild-type full-length SHP2, activated polypeptide IRS1 0.5 nM, DiFMUP 30 μM.
Experimental: 0.2 nM recombinantly expressed full-length SHP2 (aa 1-593), 0.5 nM activated polypeptide IRS1 with double phosphorylation sites (sequence: H2N-LN(pY)IDLDLY(dPEG8)LST(pY)ASINFQK-amide) and a series of concentrations of the test compound (final concentrations were 1 μM, 0.3 μM, 0.1 μM, 0.03 μM, 0.01 μM, 0.003 μM, 0.001 μM, 0.0003 μM, 0.0001 μM, 0.00003 μM) were added to the phosphatase reaction solution (60 mM HEPES, pH 7.5 0.005% Brij-35, 75 mM NaCl, 75 mM KCl, 1 mM EDTA, 5 mM DTT). The reaction solution was shaked (350 rpm) at room temperature for 30 minutes. The reaction substrate DiFMUP with a final concentration of 30 μM was added, and the reaction solution was reacted at room temperature for 30 minutes. The phosphatase reaction was stopped by adding 5 μL of stop solution (60 mM HEPES, pH 7.5, 0.2% SDS). Ex358 nm/Em455 fluorescence value was read on the fluorescence plate reader MD SpectraMax.
The IC50 value of the compound was calculated using the four-parameter logit method. In the following formula, x represents the logarithmic form of the compound concentration, and F(x) represents the effect value (the inhibition rate of cell proliferation under the given concentration condition): F(x)=((A−D)/(1+((x/C)^B)))+D. A, B, C and D are four parameters. Different concentrations correspond to different inhibition rates, based on which an inverse curve was plotted, and the IC50 of the inhibitor was calculated from the curve. The IC50 of the compound was calculated with Primer premier 6.0.

The test system of the next data set is KYSE-520 cells. The data set can be described thus: KYSE-520 cell proliferation experiment (CellTiter-Glo, 7 days). Format: cell-based. The settings on record: Homo sapiens. The method, then: The treated cell plate was incubated at 37° C., 5% CO2 for 7 days. CellTiter-Glo (Promega, G7573) was used to determine the number of viable cells in each well of the treated plate. 100 μL of the detection reagent was added to each well, and the plate was incubated at room temperature for 10 minutes. Then, the […] in each well was measured with Envision plate reader (PerkinElmer). […] The IC50 value was further calculated as the compound concentration required for 50% proliferation inhibition in the best-fit curve with […].

The target in another data set is T2, hERG potassium channel (Homo sapiens, UniProt Q12809).
T2 construct: host or cells: CHO hERG cells
Put plainly: hERG current inhibition experiment (manual patch clamp, CHO hERG cells). The format is cell-based. The settings on record: whole-cell patch clamp, tail current. The method, then: In this experiment, whole-cell current recording was performed using a manual patch clamp system (HEKA EPC-10 signal amplification and digital conversion system, purchased from HEKA Electronic, Germany). The round glass slide of which surface CHO hERG cells (provided by Sophion Bioscience Inc., Denmark, the cell generation number was P21) were grown on was placed in an electrophysiological recording slot under an inverted microscope. The recording slot was continuously perfused with extracellular fluid (approximately 1 mL per minute). Conventional whole-cell patch clamp current recording technique was used in the experiment. The experiments were performed at normal room temperature (˜25° C.). The cells were clamped at a voltage of −80 mV. Cell patch clamp voltage was depolarized to +20 mV to activate hERG potassium channel, and to −50 mV after 5 seconds to eliminate inactivation and generate tail currents. The tail current peak was used as a value of hERG current. When the hERG potassium current recorded in the above steps became steady under continuous perfusion of the extracellular fluid in the recording slot, the drug to be tested could be added to the perfusion, until the inhibition effect of the drug on hERG current reached a steady state. Generally, the overlapping of most recent three consecutive current recording lines was used as a criterion to determine whether the state was stable. After reaching the steady state, the recording slot was perfused with extracellular fluid until the hERG current returned to the value before the drug adding. The test data was analyzed by HEKA Patchmaster (V2x73.2), Microsoft Excel and the data analysis software provided by Graphpad Prism 5.0.

The test system of another data set is p-ERK in KYSE-520 cells. The data set can be described thus: Determination of p-ERK in KYSE-520 cells (HTRF). The format is cell-based. The settings on record: Homo sapiens, KYSE-520, 2 h. The method, then: KYSE-520 cells (Nanjing Cobioer Biosciences CO., Ltd.) in the logarithmic growth phase were inoculated (30,000 cells/well) in 1640 medium containing 10% of FBS, and adhered in a 96-well plate overnight (5% CO2, 37° C.). […] The cell culture was stopped with cell lysate. The level of phosphorylated ERK in KYSE-520 cells was determined by a method based on homogeneous time-resolved fluorescence HTRF (Cisbio, 64ERKPEG). The fluorescence values (Ex337 nm/Em625/665 nm) were read on the compatible HTRF reader (MD SpectraMax).
(In general: Time-resolved FRET reads energy transfer from a long-lived donor to a nearby acceptor.)

Data set [2] in a line: Pharmacokinetics assay in rats. The following applies: rat; for AUC: read-out: Area under curve AUC; for half-life: read-out: Half-life T1/2 (converted). The format is in vivo, SD rats. The method, then: Rats were used as test animals. The drug concentration in plasma at different time points was determined by LC/MS/MS method after intravenous administration or intragastrical administration of the compound of the present invention to rats. The pharmacokinetic behavior of the compound of the present invention was studied and evaluated in rats.
The atropisomer with a RT of 1.495 minutes in Examples 3 and 4, compounds of Example 17, Example 41 and Example 43.
Healthy male SD rats (6-8 weeks old), 3 rats per group.
Intravenous administration: A certain amount of the test compound was weighed, to which 10% by volume of N,N-dimethylacetamide, 33% by volume of triethylene glycol and 57% by volume of water were added to prepare a 1 mg/mL colorless, clear and transparent solution;
Intragastrical administration: A certain amount of the test compound was weighed, to which 0.5% by mass of hypromellose, 0.1% by volume of Tween 80 and 99.4% by volume of water were added to prepare a 1 mg/mL white suspension.
After an overnight fast, the SD rats were intravenously administered the test compound at an administration dose of 1 mg/kg, or intragastrically administered the test compound at an administration dose of 5 mg/kg.
The rats were intravenously administered the compound of the present invention. 0.2 ml of blood was taken from the jugular vein at 0.083, 0.25, 0.5, 1, 2, 4, 8 and 24 hours after the administration. The samples were placed in tubes containing EDTA-K2, and centrifuged at 4000 rpm and 4° C. for 5 minutes to separate the blood plasma. The plasma samples were stored at −75° C.
Or, the rats were intragastrically administered the compound of the present invention. 0.2 ml of blood was taken from the jugular vein at 0.25, 0.5, 1, 2, 4, 8 and 24 hours after the administration. The samples were placed in tubes containing EDTA-K2, and centrifuged at 4000 rpm and 4° C. for 5 minutes to separate the blood plasma. The plasma samples were stored at −75° C.
The content of the test compound in the plasma of rat after intragastrical administration of the test compound at different concentrations was determined: 50 μL of rat plasma at each time after administration was taken, to which 200 μL of a solution (50 ng/mL) of internal standard dexamethasone in acetonitrile was added. The plasma was vortex-mixed for 30 seconds, and centrifuged at 4700 rpm and 4° C. for 15 minutes. The supernatant was taken from the plasma samples, and a three-fold dilution was carried out by adding water. 2.0 μL of the supernatant was used for LC/MS/MS analysis.

T2 sequence (Q12809 whole entry): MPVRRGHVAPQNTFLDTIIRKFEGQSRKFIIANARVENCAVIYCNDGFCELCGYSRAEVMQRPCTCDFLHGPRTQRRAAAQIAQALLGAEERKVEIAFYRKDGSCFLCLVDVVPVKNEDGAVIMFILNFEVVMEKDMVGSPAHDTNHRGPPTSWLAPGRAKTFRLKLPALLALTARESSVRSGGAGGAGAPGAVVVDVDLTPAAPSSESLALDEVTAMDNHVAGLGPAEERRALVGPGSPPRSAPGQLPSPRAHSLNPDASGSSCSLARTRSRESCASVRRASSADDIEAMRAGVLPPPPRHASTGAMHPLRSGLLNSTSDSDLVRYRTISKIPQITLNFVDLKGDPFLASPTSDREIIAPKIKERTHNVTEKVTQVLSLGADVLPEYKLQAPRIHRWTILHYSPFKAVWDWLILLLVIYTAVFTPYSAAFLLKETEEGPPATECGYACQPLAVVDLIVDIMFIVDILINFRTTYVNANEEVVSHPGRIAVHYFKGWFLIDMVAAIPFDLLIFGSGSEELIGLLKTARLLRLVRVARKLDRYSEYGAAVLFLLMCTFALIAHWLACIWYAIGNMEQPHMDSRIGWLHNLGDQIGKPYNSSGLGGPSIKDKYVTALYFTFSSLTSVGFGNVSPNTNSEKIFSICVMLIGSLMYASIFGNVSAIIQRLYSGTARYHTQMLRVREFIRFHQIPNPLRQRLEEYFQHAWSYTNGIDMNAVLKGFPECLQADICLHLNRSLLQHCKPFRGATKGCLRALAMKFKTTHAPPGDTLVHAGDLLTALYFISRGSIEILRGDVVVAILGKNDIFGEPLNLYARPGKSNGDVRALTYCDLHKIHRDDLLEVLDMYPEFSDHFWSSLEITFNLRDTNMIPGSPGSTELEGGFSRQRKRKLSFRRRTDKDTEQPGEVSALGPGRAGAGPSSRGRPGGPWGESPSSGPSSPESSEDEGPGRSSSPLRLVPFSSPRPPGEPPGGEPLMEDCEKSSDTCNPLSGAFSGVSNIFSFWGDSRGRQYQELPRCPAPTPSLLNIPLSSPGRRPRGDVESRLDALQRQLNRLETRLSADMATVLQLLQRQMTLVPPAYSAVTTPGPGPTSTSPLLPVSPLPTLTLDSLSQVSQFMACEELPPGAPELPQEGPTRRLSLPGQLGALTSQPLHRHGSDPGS

Regarding `Cc1nc(N2CCC3(CCC[C@H]3N)CC2)n2ccnc2c1-c1cccc(Cl)c1Cl` [Example 1, (R)-8-(8-(2,3-Dichlorophenyl)-7-methylimidazo[1,2-c]pyrimidin-5-yl)-8-azaspiro[4.5]decan-1-amine], the half-inhibitory concentration (IC50) (usually the midpoint of a concentration-inhibition curve) in data set [1] worked out at 4.5 nM; in the data set on KYSE-520 cells it was 723 nM; on hERG potassium channel, 2130 nM; in the data set on p-ERK in KYSE-520 cells, 383 nM.
For the molecule `Cc1nc(N2CCC3(CC2)CO[C@@H](C)[C@H]3N)n2ccnc2c1-c1cccc(Cl)c1Cl` [Example 2, (3S,4S)-8-(8-(2,3-Dichlorophenyl)-7-methylimidazo[1,2-c]pyrimidin-5-yl)-3-methyl-2-oxa-8-azaspiro[4.5]decan-4-amine], the IC50 in data set [1] came to 1.1 nM; in the data set on KYSE-520 cells, 186 nM; against hERG potassium channel it was 2610 nM; in the data set with p-ERK in KYSE-520 cells it was 40.5 nM.
`Cc1nc(N2CCC3(CC2)CO[C@@H](C)[C@H]3N)n2cnnc2c1-c1cccc(Cl)c1Cl` [Example 9, (3S,4S)-8-(8-(2,3-Dichlorophenyl)-7-methyl-[1,2,4]triazolo[4,3-c]pyrimidin-5-yl)-3-methyl-2-oxa-8-azaspiro[4.5]decan-4-amine]: the IC50 in data set [1] amounted to 3.2 nM; in the data set with KYSE-520 cells it was 785 nM; against hERG potassium channel, 1910 nM; with p-ERK in KYSE-520 cells, 285 nM.
`C[C@@H]1OCC2(CCN(c3ncc(Sc4cccnc4C(F)(F)F)c4nccn34)CC2)[C@@H]1N` [Example 17, (3S,4S)-3-Methyl-8-(8-((2-(trifluoromethyl)pyridin-3-yl)thio)imidazo[1,2-c]pyrimidin-5-yl)-2-oxa-8-azaspiro[4.5]decan-4-amine]: the IC50 worked out at 4.2 nM in data set [1], 179 nM in the data set on KYSE-520 cells, 12300 nM on hERG potassium channel and 32.3 nM with p-ERK in KYSE-520 cells. The AUC (usually the area under the concentration-time curve, a measure of exposure) in data set [2] (male, SD, plasma, IV 1 mg/kg) is 764 ± 196 ng·h/mL; in data set [2] (male, SD, plasma, PO 5 mg/kg), 3210 ± 351 ng·h/mL. In data set [2] (male, SD, plasma, IV 1 mg/kg, read-out: Clearance CL_obs), the clearance (usually a measure of how efficiently the substance is removed, as volume per time) was determined as 21.5 ± 5.2 mL/min/kg. Further, the half-life is 2.83 ± 0.93 h in data set [2] (male, SD, plasma, IV 1 mg/kg) and 3.42 ± 0.37 h in data set [2] (male, SD, plasma, PO 5 mg/kg). Further, the bioavailability (as a rule, dose-corrected exposure relative to a reference, in per cent) in data set [2] (male, SD, plasma, PO 5 mg/kg vs IV 1 mg/kg, read-out: Bioavailability F) stood at 80.3 ± 8.5%. In addition, the Cmax in data set [2] (male, SD, plasma, PO 5 mg/kg, read-out: Maximum plasma concentration Cmax) is 408 ± 77 ng/mL. Further, in data set [2] (IV 1 mg/kg), the “Apparent distribution volume Vss_obs” value came out at 3.8 ± 0.1 L/kg.
`C[C@@H]1OCC2(CCN(c3nc(N)c(Sc4cccnc4C(F)(F)F)c4nccn34)CC2)[C@@H]1N` [Example 24, (3S,4S)-8-(7-Amino-8-((2-(trifluoromethyl)pyridin-3-yl)thio)imidazo[1,2-c]pyrimidin-5-yl)-3-methyl-2-oxa-8-azaspiro[4.5]decan-4-amine]: the IC50 in data set [1] was 4.4 nM; with KYSE-520 cells, 75.9 nM; on hERG potassium channel, greater than 30000 nM; in the data set on p-ERK in KYSE-520 cells it was 11 nM.
With `N[C@@H]1c2cccnc2CC12CCN(c1ncc(Sc3ccnc(NC4CC4)c3Cl)c3nccn13)CC2` [Example 36, (S)-1′-(8-((3-Chloro-2-(cyclopropylamino)pyridin-4-yl)thio)imidazo[1,2-c]pyrimidin-5-yl)-5,7-dihydrospiro[cyclopenta[b]pyridine-6,4′-piperidin]-5-amine], the half-inhibitory concentration (IC50) was found to be 2.6 nM in data set [1], 40.5 nM with KYSE-520 cells, 3970 nM on hERG potassium channel and 8 nM in the data set on p-ERK in KYSE-520 cells.
For `Cc1nc(N2CCC3(CC2)Cc2ncccc2[C@H]3N)n2ccnc2c1Sc1ccnc(N)c1Cl` [Example 42, (S)-1′-(8-((2-Amino-3-chloropyridin-4-yl)thio)-7-methylimidazo[1,2-c]pyrimidin-5-yl)-5,7-dihydrospiro[cyclopenta[b]pyridine-6,4′-piperidin]-5-amine], the IC50 in data set [1] is 1.9 nM; with KYSE-520 cells it was 65.1 nM; on hERG potassium channel, greater than 30000 nM; with p-ERK in KYSE-520 cells, 20.2 nM.

These data come from patent US20220073521A1, “PYRIMIDINE AND FIVE-MEMBERED NITROGEN HETEROCYCLE DERIVATIVE, PREPARATION METHOD THEREFOR, AND MEDICAL USES THEREOF” (Tuojie Biotech (Shanghai) Co., Ltd., priority 2018, published 2022).
